# Measured values published in patent US7867750B2, “Method for anaerobic degradation of fuel oxygenates and similar compounds” (Rutgers, The State University of New Jersey, priority 2006, dated 2011).
# “Also recorded” adds a separate entry of the source.
# Tests used:
# MTBE-utilizing culture [1] = assay: Effect of methoxylated aromatic compounds as co-substrates on MTBE utilization; format: cell-based; conditions: for lag period of MTBE utilization: 80 μM co-substrate added with MTBE; for effect on MTBE utilization/degradation rate: 80 μM co-substrate, first spiking; for effect on MTBE degradation rate: repeated spiking with MTBE + O-methyl aryl ether
# [2] = system: sulfate-reducing Arthur Kill enrichment; assay: Anaerobic MTBE biodegradation and carbon isotope fractionation, batch experiment; format: cell-based; conditions: 20 mM sodium molybdate, inhibitor of sulfate reduction
# [3] = system: Coronado Cays sediment microcosms (methanogenic and sulfate-reducing); assay: Development of MTBE-degrading enrichments from Coronado Cays sediment microcosms; format: cell-based; conditions: sediment with 5 mM lactate, sodium molybdate present
# MTBE-utilizing culture [4] = assay: MTBE utilization in the presence of various concentrations of syringate; format: cell-based
# [5] = MTBE loss in abiotic controls (methanogenic and sulfate-reducing media); format: physicochemical
# Experimental: To examine the carbon isotope fractionation during anaerobic MTBE degradation, eight batch experiments are set up. Four serum bottles, each containing 100 ml of sulfate-reducing AK enrichment, are prepared as described above. Sodium molybdate (20 mM), a specific inhibitor of sulfate reduction, is added to two sulfate-reducing AK cultures. The two remaining cultures are kept under conditions promoting sulfate reduction. From the CC enrichment, two of the 100-ml cultures are prepared for each methanogenic and sulfate-reducing enrichment. Each culture had been enriched individually from separate CC sediment microcosms and had never been combined. Methanogenic and sulfate-reducing media are used as abiotic controls. Anaerobic MTBE stock solution is added to all live enrichments and abiotic controls to a final concentration of 25 to 30 mg liter^−1. […] The headspace MTBE concentrations of the cultures are monitored over time. […]
# The concentration of MTBE is determined by a static headspace method. A 100-μl headspace sample is analyzed for MTBE with a Hewlett-Packard 5890 gas chromatograph (GC) equipped with a DB1 column (0.53 mm by 30 m; J&W Scientific, Folsom, Calif.) and a flame ionization detector with He as the carrier gas. […] For quantification, external aqueous standards of 3.0, 9.0, 15.0, and 30.0 mg liter^−1 for each compound are used. […]
compound,measurement,setting,value
COc1ccccc1O [guaiacol],lag period of MTBE utilization,MTBE-utilizing culture [1],comparable to the culture receiving MTBE alone
same,effect on MTBE utilization/degradation rate,MTBE-utilizing culture [1],adverse effect on MTBE degradation; also recorded: more severe than that of vanillate; also recorded: decrease
same,effect on MTBE degradation rate,MTBE-utilizing culture [1],increased rate of degradation
"[Na+].[Na+].[O]=[Mo](=[O])([O-])[O-] [molybdate, sodium molybdate]",effect on MTBE utilization rate,[2],decreases drastically
same,effect on sulfate reduction,[3],No significant loss of sulfate
"COc1cc(C(=O)O)cc(OC)c1O [syringate, syringic acid]",lag period of MTBE utilization,MTBE-utilizing culture [1],55 days
same,effect on MTBE utilization/degradation rate,MTBE-utilizing culture [1],enhances the MTBE utilization rate
same,effect on MTBE utilization/degradation rate,MTBE-utilizing culture [1]; listed as syringic acid,increased the degradation rate
same,effect on MTBE degradation rate,MTBE-utilizing culture [1],increased rate of degradation
same,effect on MTBE utilization,MTBE-utilizing culture [4]; 50 μM syringate,enhances MTBE utilization
same,time in which MTBE is utilized,MTBE-utilizing culture [4]; 50 μM syringate as co-substrate,less than 80 days
same,effect on MTBE utilization,MTBE-utilizing culture [4]; 100 μM syringate,enhances MTBE utilization
same,effect on MTBE utilization,MTBE-utilizing culture [4]; 500 μM syringate,slightly increases MTBE-degrading activity
same,effect on MTBE utilization,MTBE-utilizing culture [4]; 750 μM syringate,slight inhibitory effect on MTBE utilization
same,effect on MTBE utilization,MTBE-utilizing culture [4]; 1000 μM syringate,limited MTBE utilization
"COc1cc(C(=O)O)ccc1O [vanillate, vanillic acid]",lag period of MTBE utilization,MTBE-utilizing culture [1],comparable to the culture receiving MTBE alone
same,effect on MTBE utilization/degradation rate,MTBE-utilizing culture [1],adverse effect on MTBE degradation; also recorded: decrease
same,effect on MTBE degradation rate,MTBE-utilizing culture [1],increased rate of degradation
"COC(C)(C)C [MTBE, Methyl tert-butyl ether]",MTBE loss in abiotic controls,"[5]; both CC experiments, over 60 days",< 10%
same,MTBE lost in abiotic controls,[5]; end of the Arthur Kill experiment,13%
